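Values below derive from 48-hour exposures of cells grown in 96-well plates, with endpoints linearly interpolated between the two concentrations bracketing the appropriate inhibition level. GI50 is the concentration that inhibits growth by half. Definition used: TGI = concentration required for complete inhibition of growth.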
Key:
Test in all cases: inhibition of tumour cell growth, NCI panel, 48 h
786-0 renal = system: 786-0 renal
A498 renal = system: A498 renal
A549 NSCLC = system: A549 NSCLC
ACHN renal = system: ACHN renal
BT-549 breast = system: BT-549 breast
CAKI-1 renal = system: CAKI-1 renal
CCRF-CEM leukemia = system: CCRF-CEM leukemia
COLO 205 colon = system: COLO 205 colon
DU-145 prostate = system: DU-145 prostate
EKVX NSCLC = system: EKVX NSCLC
HCC-2998 colon = system: HCC-2998 colon
HCT-116 colon = system: HCT-116 colon
HCT-15 colon = system: HCT-15 colon
HL-60(TB) leukemia = system: HL-60(TB) leukemia
HOP-62 NSCLC = system: HOP-62 NSCLC
HOP-92 NSCLC = system: HOP-92 NSCLC
HS 578T breast = system: HS 578T breast
HT29 colon = system: HT29 colon
IGROV1 ovarian = system: IGROV1 ovarian
K-562 leukemia = system: K-562 leukemia
KM12 colon = system: KM12 colon
LOX IMVI melanoma = system: LOX IMVI melanoma
M14 melanoma = system: M14 melanoma
MALME-3M melanoma = system: MALME-3M melanoma
MCF7 breast = system: MCF7 breast
MDA-MB-231 breast = system: MDA-MB-231 breast
MDA-MB-435 = system: MDA-MB-435
MDA-N = system: MDA-N
MOLT-4 leukemia = system: MOLT-4 leukemia
NCI-H226 lung = system: NCI-H226 lung
NCI-H23 lung = system: NCI-H23 lung
NCI-H460 lung = system: NCI-H460 lung
NCI-H522 lung = system: NCI-H522 lung
NCI/ADR-RES ovarian = system: NCI/ADR-RES ovarian
OVCAR-3 ovarian = system: OVCAR-3 ovarian
OVCAR-4 ovarian = system: OVCAR-4 ovarian
OVCAR-5 ovarian = system: OVCAR-5 ovarian
OVCAR-8 ovarian = system: OVCAR-8 ovarian
PC-3 prostate = system: PC-3 prostate
RPMI-8226 leukemia = system: RPMI-8226 leukemia
RXF 393 renal = system: RXF 393 renal
SF-268 CNS = system: SF-268 CNS
SF-295 CNS = system: SF-295 CNS
SF-539 CNS = system: SF-539 CNS
SK-MEL-2 melanoma = system: SK-MEL-2 melanoma
SK-MEL-28 melanoma = system: SK-MEL-28 melanoma
SK-MEL-5 melanoma = system: SK-MEL-5 melanoma
SN12C renal = system: SN12C renal
SNB-19 CNS = system: SNB-19 CNS
SNB-75 CNS = system: SNB-75 CNS
SR leukemia = system: SR leukemia
SW-620 colon = system: SW-620 colon
TK-10 renal = system: TK-10 renal
U251 CNS = system: U251 CNS
UACC-257 melanoma = system: UACC-257 melanoma
UO-31 renal = system: UO-31 renal
SK-OV-3 ovarian = system: SK-OV-3 ovarian
T-47D breast = system: T-47D breast
UACC-62 melanoma = system: UACC-62 melanoma

In the case of `COC(CN(C(=O)c1ccccc1)C1CCC2(SCCS2)c2[nH]c3ccccc3c21)OC` (stereo unspecified), the TGI (786-0 renal) is reported as over 100 µM, the TGI (A498 renal) is reported as over 100 µM and the TGI (A549 NSCLC) is reported as over 100 µM. The TGI (ACHN renal) was over 100 µM, the TGI (BT-549 breast) was over 100 µM and the TGI (CAKI-1 renal) was over 100 µM. For the same molecule, the TGI (CCRF-CEM leukemia) was over 100 µM, the TGI (COLO 205 colon) was 59.3 µM and the TGI (DU-145 prostate) was over 100 µM. The TGI (EKVX NSCLC) was over 100 µM, the TGI (HCC-2998 colon) was over 100 µM and the TGI (HCT-116 colon) was over 100 µM. The TGI (HCT-15 colon) was over 100 µM, the TGI (HL-60(TB) leukemia) was over 100 µM and the TGI (HOP-62 NSCLC) was over 100 µM. The TGI (HOP-92 NSCLC) was over 100 µM, the TGI (HS 578T breast) was over 100 µM and the TGI (HT29 colon) was over 100 µM. It also gave a TGI (IGROV1 ovarian) of over 100 µM, a TGI (K-562 leukemia) of over 100 µM and a TGI (KM12 colon) of over 100 µM. The TGI (LOX IMVI melanoma) was 6.67 µM, the TGI (M14 melanoma) was over 100 µM and the TGI (MALME-3M melanoma) was over 100 µM. The TGI (MCF7 breast) was over 100 µM, the TGI (MDA-MB-231 breast) was over 100 µM and the TGI (MDA-MB-435) was 70.2 µM. The TGI (MDA-N) was 49 µM, the TGI (MOLT-4 leukemia) was over 100 µM and the TGI (NCI-H226 lung) was over 100 µM. The TGI (NCI-H23 lung) was over 100 µM, the TGI (NCI-H460 lung) was over 100 µM and the TGI (NCI-H522 lung) was 65.4 µM. For the same molecule, the TGI (NCI/ADR-RES ovarian) was over 100 µM, the TGI (OVCAR-3 ovarian) was over 100 µM and the TGI (OVCAR-4 ovarian) was over 100 µM. For the same molecule, the TGI (OVCAR-5 ovarian) was over 100 µM, the TGI (OVCAR-8 ovarian) was over 100 µM and the TGI (PC-3 prostate) was 77.1 µM. The TGI (RPMI-8226 leukemia) was over 100 µM, the TGI (RXF 393 renal) was over 100 µM and the TGI (SF-268 CNS) was over 100 µM. The TGI (SF-295 CNS) was 13.9 µM, the TGI (SF-539 CNS) was over 100 µM and the TGI (SK-MEL-2 melanoma) was over 100 µM. The TGI (SK-MEL-28 melanoma) was over 100 µM, the TGI (SK-MEL-5 melanoma) was over 100 µM and the TGI (SN12C renal) was over 100 µM. For the same molecule, the TGI (SNB-19 CNS) was over 100 µM, the TGI (SNB-75 CNS) was over 100 µM and the TGI (SR leukemia) was over 100 µM. It also gave a TGI (SW-620 colon) of over 100 µM, a TGI (TK-10 renal) of over 100 µM and a TGI (U251 CNS) of over 100 µM. It also gave a TGI (UACC-257 melanoma) of 33.5 µM and a TGI (UO-31 renal) of over 100 µM.

Molecule `NS(=O)(=O)c1ccc(-n2c(-c3cccs3)nc3ccc(I)cc3c2=O)cc1` has a TGI (786-0 renal) of 77.8 µM, a TGI (A549 NSCLC) of 41.5 µM and a TGI (ACHN renal) of 53.8 µM. It also gave a TGI (BT-549 breast) of 37.9 µM, a TGI (CAKI-1 renal) of 36.6 µM and a GI50 (CCRF-CEM leukemia) of 41.2 µM. The TGI (CCRF-CEM leukemia) was over 100 µM, the TGI (COLO 205 colon) was 40.3 µM and the TGI (DU-145 prostate) was 35.9 µM. For the same molecule, the TGI (EKVX NSCLC) was 54.3 µM, the TGI (HCC-2998 colon) was 39.9 µM and the TGI (HCT-116 colon) was 31 µM. For the same molecule, the TGI (HCT-15 colon) was 50.9 µM, the TGI (HL-60(TB) leukemia) was 64.4 µM and the TGI (HOP-62 NSCLC) was 84.2 µM. It also gave a TGI (HOP-92 NSCLC) of 54.1 µM, a TGI (HT29 colon) of 94.1 µM and a TGI (IGROV1 ovarian) of 56 µM. The GI50 (K-562 leukemia) was 37.2 µM, the TGI (K-562 leukemia) was over 100 µM and the TGI (KM12 colon) was 59.3 µM. It also gave a TGI (LOX IMVI melanoma) of 37 µM, a TGI (M14 melanoma) of 56 µM and a TGI (MALME-3M melanoma) of 43.2 µM. For the same molecule, the TGI (MCF7 breast) was 65.4 µM, the TGI (MDA-MB-435) was 42.4 µM and the TGI (MDA-N) was over 100 µM. For the same molecule, the TGI (MOLT-4 leukemia) was over 100 µM, the TGI (NCI-H226 lung) was 87.3 µM and the TGI (NCI-H23 lung) was 51.1 µM. It also gave a TGI (NCI-H460 lung) of 83 µM, a TGI (NCI-H522 lung) of 39.1 µM and a TGI (NCI/ADR-RES ovarian) of 86.3 µM. It also gave a TGI (OVCAR-3 ovarian) of 35.1 µM, a TGI (OVCAR-4 ovarian) of 86.3 µM and a TGI (OVCAR-5 ovarian) of 59.9 µM. For the same molecule, the TGI (OVCAR-8 ovarian) was over 100 µM, the TGI (PC-3 prostate) was 81.9 µM and the GI50 (RPMI-8226 leukemia) was 25.3 µM. The TGI (RPMI-8226 leukemia) was 62.1 µM, the TGI (RXF 393 renal) was 88.9 µM and the TGI (SF-268 CNS) was 86.8 µM. For the same molecule, the TGI (SF-295 CNS) was 75.8 µM, the GI50 (SK-MEL-2 melanoma) was 21.8 µM and the TGI (SK-MEL-2 melanoma) was 47.6 µM. For the same molecule, the TGI (SK-MEL-28 melanoma) was 55.5 µM, the TGI (SK-MEL-5 melanoma) was 47.1 µM and the TGI (SK-OV-3 ovarian) was 53.7 µM. For the same molecule, the TGI (SN12C renal) was 98.9 µM, the TGI (SNB-19 CNS) was 70.6 µM and the TGI (SNB-75 CNS) was 87.4 µM. It also gave a TGI (SR leukemia) of over 100 µM, a TGI (SW-620 colon) of over 100 µM and a GI50 (T-47D breast) of 19.2 µM. The TGI (T-47D breast) was 43.5 µM, the TGI (TK-10 renal) was 50.8 µM and the TGI (U251 CNS) was 48.8 µM. It also gave a TGI (UACC-257 melanoma) of 19.3 µM, a TGI (UACC-62 melanoma) of 46.2 µM and a TGI (UO-31 renal) of 42.6 µM.
